# What was measured:
# [1] = tested on: mice under chronic mild stress; assay: Elevated plus maze test after completion of stress; assay type: in vivo
# Protocol: In this test, an anxiety level can be evaluated from the time for being the open arm, and a behavior amount can be evaluated from the number of times of entering the closed arm. From the evaluations, when a mouse has an anxiety symptom (condition), the time for being in the open arm […], and thus, a level of the anxiety symptom (condition) can be evaluated from the length of the time. FIGS. 8 to 11 show the results.
# Example 2 is a behavior test in which the compound 8 was administered to a mouse as well as stress was applied and a suppression effect of the compound 8 on depressive and anxiety symptoms of the mouse was examined. On the other hand, the present example is a behavior test in which only stress was applied for 3 weeks without administering the compound 8 and stress was completed and a therapeutic effect of the compound 8 on depressive and anxiety symptoms of a mouse after removing stress was examined. Stress was applied to a mouse in the same manner as in Example 2. For behavior tests of mice, the burying the glass-marbles test, the tail suspension test and the elevated plus maze test were performed respectively in the same manners as in Example 2 on groups without administering the compound 8 immediately after completion of stress for 3 weeks and groups without administering the compound 8 with no stress from the start (hereinafter referred to as “non-administration groups after completion of stress”); a group administered with the compound 8 for 1 week after completion of stress and a group administered with the compound 8 for 1 week in the same manner as the former group with no stress from the start (hereinafter referred to as “1 week-administration groups after completion of stress”); and a group administered with the compound 8 for 2 weeks after completion of stress and a group administered with the compound 8 for 2 weeks in the same manner as the former group with no stress from the start (hereinafter referred to as “2 week-administration groups after completion of stress”). […]
# mice = assay: Voluntary alternation behavior test (Y-maze test) of mice administered with trimethyltin; assay type: in vivo
# Protocol: The voluntary alternation behavior test (Y-maze test) is one kind of a behavior test using a Y-shaped maze constituted with three arms. First, a mouse is placed on the tip of one arm out of the three arms, letting the mouse freely explore in the maze over 8 minutes, and arms where the mouse transferred are recorded in order. Then, the number of times of transferring to each arm (total arm selection number (total arm entries)) and the number of sequentially selecting three different arms (number of alternation behavior (number of spontaneous behavior)) are counted.
# Trimethyltin (hereinafter referred to as “TMT”) is an organic metal compound having neurotoxicity, and acute nerve cell death is cased particularly in granular nerve cells of the hippocampus dentate gyrus, which thus affects memory and learning abilities of a mouse.
# The voluntary alternation tests (Y-maze tests) were performed on 1) test groups to which the compound 8 was singly administered and 2) test groups to which TMT and the compound 8 were administered. In the test groups to which the compound 8 was singly administered, the compound 8 was dissolved in 0.1% DMSO to adjust a concentration so as to have each of the doses of 100 and 500 μg/kg and intraperitoneally injected to 6 mice in every administration example each in a dose of 0.25 mL. In 0 μg/kg weight administration examples of controls, 0.25 mL of a phosphoric acid buffer containing 0.1% DMSO was intraperitoneally injected in each time. The voluntary alternation tests (Y-maze tests) were performed on each of the administration groups after the elapse of 2 hours from intraperitoneal administration. In the test group in which TMT and the compound 8 were administered, TMT (2 mg/kg weight) was intraperitoneally administered to a mouse, and the compound 8 was intraperitoneally administered in the same manner as the test groups in which the compound 8 was singly administered after 2 days have passed, and the voluntary alternation test (Y-maze test) was performed after the elapse of 2 hours. FIG. 32 show the results. Significance tests were performed in a Turkey's test (*, ##) and a Student's t-test (++). “DAEE” denotes the compound 8.
smiles,measurement,setting,value
"CCCCCCC/C=C/C(=O)OCC [Compound 8, trans-2-decenoic acid ethyl ester]","time for being in open arm, stressed vs non-stressed example","[1]; 500 μg/kg, 1 week-administration groups after completion of stress",no significant difference
same,number of times of entering closed arm (behavior amount),"[1]; 1 week- and 2 week-administration groups after completion of stress, vs controls (0 μg/kg) and stressed vs non-stressed",no significant difference
same,"time for being in open arm, stressed vs non-stressed example","[1]; all administration examples, 2 week-administration group after completion of stress",no significant difference
same,total arm entries (motor function),"mice; 100 and 500 μg/kg intraperitoneally, 2 hours before test, with or without TMT",no difference
same,"voluntary alternation behavior, compound singly administered","mice; 100 and 500 μg/kg intraperitoneally, test after 2 hours",significantly increased
same,voluntary alternation behavior in TMT-treated mice,"mice; TMT 2 mg/kg intraperitoneally, compound 8 after 2 days, test after 2 hours",suppressed decrease

# From patent US8557864B2, “Agent having neurotrophic factor-like activity” (Nagoya Industrial Science Research Institute, priority 2007, dated 2013)
